Test results: a melting point compilation (Tetko et al.; mined from patent text by program, amines drawn as free bases though some values may be those of a salt)

| melting point | Structure (SMILES) |
| --- | --- |
| 260 °C | COc1cc(C(=O)NC2CC(C)(C)N(C)C(C)(C)C2)ccc1-c1cc2cc(Cl)c(Cl)cc2[nH]1 |
| 29 °C | CCCCCCCCCCCC(=O)CC(=O)OC |
| 156 to 174 °C | CC1CC2C3CCC4=CC(=O)C=CC4(C)C3=CCC2(C)C1C(=O)CN1CCN(c2cc(N3CCC4(CC3)OCCO4)nc(N3CCC4(CC3)OCCO4)n2)CC1 (configuration not stated) |
| 196 to 200 °C | CCc1nn(Cc2cccnn2)c(C(N)=O)c1NC(=O)c1cc(S(C)(=O)=O)ccc1OCC(C)C |
| 70 to 73 °C | COc1ccc(C=CC(=O)OCCC(C)CCc2ccccc2)c(O)c1 (configuration not stated) |
| 239 to 240 °C | CS(=O)(=O)c1ccc(-n2nc(C(N)=O)cc2-c2ccc(-c3ccco3)cc2)cc1F |
| 54.5 to 56 °C | COCCCCC(=O)c1ccc([N+](=O)[O-])c(Cl)c1 |
| 111 to 113 °C | COC(=O)[C@H](Cc1ccccc1)NC(=O)[C@H](Cc1ccccc1)NC(=O)c1cnccn1 |
| 228 to 230 °C | CC(=O)Nc1cnn2c1-c1ccccc1NC2(C)C |
| 106 to 107 °C | CC(C)Nc1cccnc1N1CCN(C(=O)c2ccc(C(=O)NCCN3CCCCC3)cc2)CC1 |
| 200 to 202 °C | CCOC(=O)c1cn(C2CC2)c2c(C)c(N3CCN(C(=O)OCC)CC3)c(F)cc2c1=O |
| 203 to 204 °C | N#Cc1cc(C#N)cc(C=O)c1 |
| 121 to 123 °C | C/C=C/C(=O)NCCc1ccc(F)cc1 |
| 200 to 201 °C | CCOC(=O)c1ncc2[nH]c3ccc(C4CC=CCC4)cc3c2c1C (configuration not stated) |
| 181 to 184 °C | N#Cc1c(Cl)ccc([N+](=O)[O-])c1N |
| 258 to 265 °C | CC(=O)c1cc2c(=O)n(NS(C)(=O)=O)c(=O)[nH]c2cc1C(F)(F)F |
| 84 to 86 °C | COc1cc(OC)c(C2=NC(C)(C)CO2)cc1OC |
| 220 °C | CC(C)c1nc(CO)n(Cc2ccc(=O)[nH]c2)c1Sc1cc(Cl)cc(Cl)c1 |
| 124 to 125 °C | COc1ccc(-c2cc(N)n[nH]2)cc1OC |
| 112 to 114 °C | COC12CCCCC1CC(c1ccccc1)=NN2S(=O)(=O)c1ccc(C)cc1 (configuration not stated) |
| 180 to 181 °C | O=C(O)C(O)=CC(=O)c1ccc(Cl)c(Cl)c1 |
| 127 °C | C/C=C1\NC(=O)N(CCCC)C1=O |
| > 220 °C | Nc1cccc(-c2ccc(CCN3CCN(C4CCc5ccccc5C4)CC3)cc2)n1 (configuration not stated) |
| 89.9 to 91.8 °C | O=C(NO)C1C2CCC(CC2)C1S(=O)(=O)c1ccc(Oc2ccccc2)cc1 (configuration not stated) |

| melting point | Structure (SMILES) |
| --- | --- |
| 179 to 182 °C | COCCOC(=O)c1c(F)cccc1S(=O)(=O)NC(=O)Nc1nc(OC)nc(OC)n1 |
| 75 to 78 °C | COC(=O)c1ccc(CN2CCN(C(=O)c3cc(C(F)(F)F)cc(C(F)(F)F)c3)[C@H](Cc3c[nH]c4ccccc34)C2)cc1 |
| 210 to 211 °C | O=C1NCCCN1c1ccccc1 |
| 175 to 176 °C | O=C(O)c1nc(-c2ccc(-c3ccccc3)cc2)nc2ccccc12 |
| 105 to 106 °C | O=C(c1nc2ccc(O)cc2[nH]1)N1CCC(=Cc2ccc(F)cc2)CC1 |
| 96 to 98 °C | O=C(Cl)c1ccc(C#Cc2ccccc2F)o1 |
| 137 to 138 °C | CC1(C2CCC3C4C=CC5=CC(=O)C6OC6C5(C)C4CCC32C)OCCO1 (configuration not stated) |
| 50 to 52 °C | O=C(CC(=O)C1CCCCC1)C1CCCCC1 |
| 190 to 193 °C | Cn1cc(-c2ccccc2)c(=S)c(-c2cccc(Cl)c2)c1 |
| 242 to 244 °C | COc1cc(C(=O)O)cc(CCc2ccccc2)c1C(=O)O |
| 177 to 179 °C | CN(C)CCCNc1c(-c2ccccc2)c(=O)[nH]c2cc(Cl)ccc12 |
| 84 to 87 °C | C=C(C(=O)c1ccc(C(=O)NCCN2CCOCC2)cc1)c1cc(OC)c(OC)c(-c2cccs2)c1 |
| 202 °C | CCC1CC(=O)N(CCc2ccc(NC(=O)c3cnccn3)cc2)N=C1c1ccc(OC)c(OC)c1 (configuration not stated) |
| 88 to 89 °C | COc1cc(-c2nc(N)sc2SCC2CCCC2)c(OC)cc1C |
| 98 to 104 °C | CC(C)(C)OC(=O)N1C2CCC1CN(CC(O)COc1ccc(C#N)cc1)C2 (configuration not stated) |
| 248 to 250 °C | COc1ccc(S(=O)(=O)Nc2cccnc2Nc2ccc(C(=O)O)cc2)cc1 |
| 184 to 185 °C | CC(C)(C)C(=O)C(Br)C(c1ccc(Cl)cc1Cl)S(=O)(=O)c1ccc(Cl)cc1 (configuration not stated) |
| 161 to 162 °C | Nc1c(-c2ccc(O)cc2)nnn1-c1ccc(C(F)(F)F)cc1Cl |
| 93 to 95 °C | CCN1CN(C)C(=S)N(c2cc(Cl)ccc2C)C1 |
| 186 to 187 °C | COCCNC(=O)c1ccc(C)c(-n2c(C)cc(OCc3ccc(F)cc3CNC(=O)Nc3cc(C(C)(C)C)nn3-c3ccc(Cl)c(O)c3)c(Cl)c2=O)c1 |
| 179 to 181 °C | CC1=Cc2cc(-c3nnn[nH]3)ccc2OC1(C)C |
| 158 to 163 °C | CC(C)(C)SCC1(C(=O)O)Cc2ccccc2C1 |
| 59 to 60 °C | CCC(SC(C)=O)C(=O)NC(C)=O (configuration not stated) |
| 100 to 110 °C | Nc1ncnc2c1nc(SCC(O)COc1ccccc1)n2C1OC(CO)C(O)C1O (configuration not stated) |

| melting point | Structure (SMILES) |
| --- | --- |
| 206 to 209 °C | O=C1c2ccccc2C(=O)N1CCc1c[nH]c2ccc(Br)cc12 |
| 150 °C | CCCCCS(=O)(=O)NC(=O)/C=C/c1ccc(OCCOC)cc1Oc1ncc(NC(=O)OC(C)(C)C)cc1C |
| 158 to 160 °C | CC(C)C(NC(=O)N(C)Cc1ccccn1)C(=O)N(C(=O)C(NC(=O)N(C)Cc1nccs1)C(C)C)C(Cc1ccccc1)C(O)CCCc1ccccc1 (configuration not stated) |
| 285 to 292 °C | Cc1ccc(Cc2ccc(-c3cnn4c(O)ncnc34)cc2)cc1 |
| 229 to 234 °C | CC(C)Oc1ccc(C(=O)n2nc(Nc3ccc(O)cc3)nc2N)cc1 |
| 197 to 198 °C | C#Cc1cccc(N2C(=O)c3ccccc3C2=O)c1 |
| 75.4 to 75.9 °C | CCOC(=O)/C=C/c1ccc(OCCOC2CC2)cc1Oc1ncc(C(F)(F)F)cc1Cl |
| 89 °C | CC(C)(C)C1=C(O)C(=O)c2ccccc2C1=O |
| 200 to 206 °C | Cc1ccc(S(=O)(=O)Nc2ccc(C#N)cc2C#N)cc1 |
| 141 °C | CC(NC(=O)C(=O)c1c[nH]c2ccc(Br)cc12)c1c[nH]c2ccc(Br)cc12 (configuration not stated) |
| 103 to 105 °C | Brc1ccc(OCc2ccc3ccccc3n2)cc1 |
| 156 to 157 °C | NC(=O)CNC(=O)c1cccc(-c2cccc3oc(Cc4cc(F)cc(Cl)c4)cc23)c1 |
| 113 to 115 °C | COc1ccc(-c2ccc(N(C)C)cc2)cc1C=O |
| 191 to 194 °C | NS(=O)(=O)c1ccc(-c2cnn(CC=C(F)F)c(=O)c2-c2ccc(F)cc2)cc1 |
| 140 to 141 °C | CCCN(C(=O)Oc1ccccc1)C1Cc2ccc(-c3ccc(=O)[nH]n3)cc2C1 (configuration not stated) |
| 120 °C | Cc1c(OCCCOc2cc(C(C)(C)C)c(O)c(C(C)(C)C)c2C)cc(C(C)(C)C)c(O)c1C(C)(C)C |
| 127 °C | N#Cc1ccc(Oc2ccccc2[N+](=O)[O-])cc1C#N |
| 258 to 260 °C | O=C(c1cccs1)N1CCc2cc(S(=O)(=O)n3cc(-c4ccccc4)[nH]c3=O)ccc21 |
| 241 to 243 °C | CCOC(=O)C1C=Nc2c(cccc2[N+](=O)[O-])C1=O (configuration not stated) |
| 151 to 154 °C | CNC(=O)c1ccc(-c2ccc3oc(C4CCN(C(=O)OC(C)C)CC4)nc3c2)cc1C |
| 174 °C | COc1ccc(S(=O)(=O)CC(CS(=O)(=O)c2ccc(OC)cc2)C(=O)NO)cc1 |
| 208 to 210 °C | CCCCCCCNC(=O)Nc1ccc(F)cc1C(=O)NC1CCN(C(c2ccccc2)c2ccccc2)CC1 |
| 88 to 89 °C | CCc1noc(-c2cn(-c3ccccc3OCc3ccc(Cl)cc3)cn2)n1 |
| 87 to 88 °C | COc1cc(C)c(C(=O)c2c(OC)ccc(Br)c2Cl)c(OC)c1OC |

| melting point | Structure (SMILES) |
| --- | --- |
| 48 °C | CC1CC(=Cc2ccccc2Cl)C(=O)O1 (configuration not stated) |
| 163 to 165 °C | CC(=O)SCC(Cc1ccccc1)C(=O)Nc1ccc(Cl)c(C(=O)O)c1 (configuration not stated) |
| 215 to 217 °C | O=C(O)c1cnc2n(c1=O)CCc1ccccc1-2 |
| 269 to 270 °C | COc1ccccc1Sc1c(O)c2c(Cl)cc(Cl)cc2[nH]c1=O |
| 111 to 114 °C | COc1ccc(-c2cc3cc(F)c(F)cc3[nH]2)cc1NC(=S)N[C@@H](COC(C)(C)C)C(=O)OC(C)(C)C |
| 235 to 242 °C | Cc1cc(Br)cnc1CCCCNC1=NS(=O)(=O)c2cc([N+](=O)[O-])ccc21 |
| 192 to 193 °C | C#CCNC(=O)c1cc(C(=O)OC)c(O)c2ncc(Cc3ccc(F)cc3)cc12 |
| 95 to 97 °C | COC(=O)C#CC(=O)c1ccc2c(c1)OCO2 |
| 99 to 100 °C | Cc1c2n(c3ccccc13)C(=O)C(Cc1cn(C)cn1)CC2 (configuration not stated) |
| 143 to 144 °C | COc1ccc2c(ccn2CC2(c3ccccc3Br)OCCO2)n1 |
| 156 to 157 °C | COC(=NS(=O)(=O)c1ccccc1Cl)Nc1nc(C)nc(OC)n1 |
| 194 °C | CC(C)C(c1ccc2[nH]c(=O)cnc2c1)n1ccnc1 (configuration not stated) |
| 254 °C | CCCC(=O)NN(C(=O)C(=O)NN)C(=O)c1ccccc1 |
| 168 to 170 °C | O=C1CCC(=O)c2ccccc2N1 |
| 68 to 69 °C | CCCCCCOc1ccc(C(=O)NCC2CCCC2(C)C)cc1 (single isomer, unassigned; (+)) |
| 247 to 248 °C | O=C(O)C=Cc1cccc(-c2cccc([N+](=O)[O-])c2)c1 |
| 192 to 193 °C | CC(C)n1c(=O)[nH]c2cc(-c3ncc(C(F)(F)F)cc3Cl)ccc21 |
| 167 to 169 °C | COC(=O)C1=C(C)NC(C)=C(C(=O)OCC(C)(C)CN(C)C)C1c1cccc([N+](=O)[O-])c1Cl (configuration not stated) |
| 90 to 91 °C | Cc1ccc(NC(=O)OC(C)(C)C)c(C)c1 |
| 136 °C | N#CCCn1nc(-c2ccc(OCc3ccccc3)cc2)oc1=O |
| 59 to 60 °C | COC(=O)c1cc(C2CO2)cc([N+](=O)[O-])c1 (configuration not stated) |
| 276 °C | Cc1ccc2c(c1)c(N1CCN(C(=O)c3ccco3)CC1)c(C#N)c(=O)n2Cc1ccc(F)cc1 |

| Structure (SMILES) | melting point |
| --- | --- |
| CC(=O)C1C2=CCC3C(CCC4(C)C(O)C(O)CC34)C2(C)CCC1O (configuration not stated) | 152 to 153 °C |
| CN1Cc2c(-c3noc(CN4CCCC4)n3)ncn2-c2ccc(F)cc2C1=O | 158 to 160 °C |
| CN1CCC23c4c5ccc(O)c4OC2C(=NO)CCC3(O)C1C5 (configuration not stated) | 270 to 271 °C |
